Measurements: patent publication US10100088B2, “Glycopeptide derivatives for the preservation and protection of biological materials and microorganisms” (TFCHEM, priority 2014, dated 2018)

Assay: Comparative stability towards basic conditions (NaOD in D2O), 1H NMR
Assay type: physicochemical
Procedure: In a first set of experiments (experiments 1 to 7 in table 9), X (10 mg, 1.72 10^−2 mmol) was reacted with 2 to 8 equivalents of NaOD in a total volume of 355 μL of deuterium oxide ([X]=4.8 10^−2 mmol·mL^−1) during 2 h 30 before being acidified with 1M DCl in D2O. To be sure that all compounds in solution are in their acidic form, the equivalents of DCl are adjusted to 3 more equivalents of DCl than the amount required to neutralize the solution (nDCl=nNaOD+3). The volume was adjusted to 544 μL with deuterium oxide.
In a second set of experiments (experiments 8 to 14 in table 9), 17 (10 mg, 1.66 10^−2 mmol) was reacted with 2 to 8 equivalents of NaOD in a total volume of 343 μL of deuterium oxide ([17]=4.8 10^−2 mmol·mL^−1) during 2 h 30 before being acidified with 1M DCl in D2O. To be sure that all compounds in solution are in their acidic form, the equivalents of DCl are adjusted to 3 more equivalents of DCl than the amount required to neutralize the solution (nDCl=nNaOD+3). The volume was adjusted to 526 μL with deuterium oxide.
^1H NMR analyses were performed on each experiment. It is why experiments were realized in deuterium oxide and using 1M NaOD in D2O as base and 1M DCl in D2O as acid.
^1H NMR allows indeed the determination of the amount of compound X1 formed, by comparison between the integration corresponding to the methylene group of the lysine side chain connected to the nitrogen atom in X (CH2NGP) (3.3 ppm) and the integrationof the same methylene group in X1 (CH2Lys hydrolyzed) (3.0 ppm).
To confirm the structure of compounds X1 and X2, resulting from hydrolysis of X, the following experiment was realized, in which X (10 mg, 1.72 10^−2 mmol) was reacted with 8 equivalents of NaOD in a total volume of 355 μL of deuterium oxide ([X]=4.8 10^−2 mmol·mL^−1) during 3 days before being acidified with 1M DCl in D2O. In these conditions, almost the totality of compound X is hydrolyzed, the percentage of hydrolysis of compound X being 85% as determined by ^1H NMR as evidence in table 11.

With `C[C@H](NC(=O)[C@H](C)NC(=O)[C@@H](N)CCCCNCC(F)(F)C1(O)O[C@H](CO)[C@H](O)[C@H](O)[C@H]1O)C(=O)O.Cl.Cl` (stereo partly drawn) [Compound 17] the “% hydrolyzed” value (2 eq NaOD, 2 h 30, D2O) was 0%, the “stability towards basic conditions (in words)” value (2 to 8 eq NaOD, 2 h 30, 1H NMR) was “absence of degradation” and the “% hydrolyzed” value (3 eq NaOD, 2 h 30, D2O) was 0%. For the same molecule, the “% hydrolyzed” value (4 eq NaOD, 2 h 30, D2O) was 0%, the “% hydrolyzed” value (5 eq NaOD, 2 h 30, D2O) was 0% and the “% hydrolyzed” value (6 eq NaOD, 2 h 30, D2O) was 0%. The “% hydrolyzed” value (7 eq NaOD, 2 h 30, D2O) was 0%, the “% hydrolyzed” value (8 eq NaOD, 2 h 30, D2O) was 0% and the “% hydrolyzed” value (Control, 0 eq NaOD) was 0%.
